Article PMC6123382, “Phosphorylation of the Amyloid-Beta Peptide Inhibits Zinc-Dependent Aggregation, Prevents Na,K-ATPase Inhibition, and Reduces Cerebral Plaque Deposition” (Frontiers in Molecular Neuroscience, 2018)
Each block holds one substance with its values, some of them ahead of it. Where no end group is shown, it is not given here.

How the values were obtained:
[1] = target: Na^+/K^+-ATPase (α1β1 isozyme) (Anas platyrhynchos, UniProt Q6TG02+Q7ZYV1); experiment: Isothermal titration calorimetry of binding to Na+/K+-ATPase; design: species or system duck (salt glands); conditions: ITC, 25°C
Description: The purified preparation of Na^+/K^+-ATPase (α1β1 isozyme) was obtained from duck salt glands as described elsewhere ([Petrushanko et al., 2016]).
The thermodynamic parameters of amyloid peptides binding to Na^+/K^+-ATPase were measured using a MicroCal iTC200 instrument, as described elsewhere ([Mitkevich et al., 2012]; [Petrushanko et al., 2014]). Experiments were carried out at 25°C in 10 mM imidazole buffer (pH 7.5), containing 130 mM NaCl, 30 mM KCl, 3 mM MgCl2. Aliquots (2.6 μl) of ligands were injected into a 0.2-ml cell containing protein solution to achieve a complete binding isotherm. Protein concentration in the cell ranged from 10 to 20 μM, and ligand concentration in the syringe ranged from 100 to 200 μM. The resulting titration curves were fitted using the MicroCal Origin software, assuming one set of binding sites. Affinity constants (Ka), enthalpy variations (ΔH) and stoichiometry of binding (N) were determined and the Gibbs energy (ΔG) and entropy variations (ΔS) were calculated from the equation: ΔG = −RTlnKa = ΔH-TΔS.

[2] = cited from earlier work
Text: Recently, it has been shown that Aβ undergoes phosphorylation at Ser8 both in vitro and in vivo ([Kumar et al., 2011], [2013]). […] Recently, pS8-Aβ was obtained in vitro by Aβ phosphorylation with protein kinase A and was subsequently identified in vivo ([Kumar et al., 2011], [2013]). Based on the oligomeric state of pS8-Aβ derived from brain tissue of A ...

[3] = target: Na+/K+-ATPase (α1β1 isozyme) from duck salt glands (duck); experiment: ITC; peptide (100-200 μM, syringe) injected into Na+/K+-ATPase (10-20 μM, cell); 25°C; 10 mM imidazole pH 7.5, 130 mM NaCl, 30 mM KCl, 3 mM MgCl2; fit with one set of binding sites
[4] = 10 mM imidazole buffer (pH 7.5), 130 mM NaCl, 30 mM KCl, 3 mM MgCl2
[5] = pH 7.5, calculated from ΔG = −RTlnKa = ΔH-TΔS

Substance: LVFFAEDVGSNKGAIIGLMVGGVVIA [Aβ17–42]
detectability of binding to Na+,K+-ATPase [1, 4]: Binding was detectable | ΔH [1, 4]: -2.27 kcal/mol | Ka ([1]; 10 mM imidazole buffer (pH 7.5), 130 mM NaCl, 30 mM KCl, 3 mM MgCl2, one set of binding sites): 260000 M⁻¹ | TΔS [1, 5]: 5.13 kcal/mol | ΔG [1, 5]: -7.4 kcal/mol

Substance: pS8-Aβ40: Aβ40 phosphorylated at Ser8 (literature)
aggregation in vitro ([2]; absence of divalent cations, ref Kumar et al. (2011)): accelerated aggregation

Substance: pS8-Aβ: phosphorylated Ser8-containing β-amyloid peptide (length not stated, literature)
aggregation in absence of zinc ions ([2]; in vitro, absence of zinc ions, ref Rezaei-Ghaleh et al., 2016, Jamasbi et al., 2017): fast-aggregating peptide species

Ka [3]: 260000 M⁻¹ | Kd [3]: 3.8 µM | dH [3]: -2.27 kcal/mol
Substance: β-amyloid peptide 17–42 (Aβ17-42), C-terminal hydrophobic fragment
